Experiments:
Format in all cases: cell-based
RORα = target: T1, RORα (Homo sapiens, UniProt P35398); assay: Gal4-RORα hybrid reporter gene assay in HEK293T cells; conditions: for IC50: Gal4 hybrid reporter gene assay, inverse agonism, mean±S.E.M., n≥4
T1 construct: uniprot ID P35398-2, aa 266- 523; expressed in transfected cells; host or cells: HEK293T
T1 sequence (P35398 266-523): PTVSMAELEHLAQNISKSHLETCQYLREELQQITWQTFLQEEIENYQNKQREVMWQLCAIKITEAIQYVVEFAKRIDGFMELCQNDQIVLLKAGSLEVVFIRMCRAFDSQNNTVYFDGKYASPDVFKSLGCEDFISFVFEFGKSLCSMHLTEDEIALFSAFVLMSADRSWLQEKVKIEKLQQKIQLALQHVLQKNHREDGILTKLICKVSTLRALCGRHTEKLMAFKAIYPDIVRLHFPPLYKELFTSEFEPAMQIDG
From the text: (§1) In vitro characterization of compounds 1, 2, and 3 in Gal4‐ROR hybrid reporter gene assays confirmed inverse RORγ agonism with micromolar to sub‐micromolar IC50 values (Table 1).
(§2) In vitro Characterization Methods
(§3) Hybrid reporter gene assays. The hybrid receptor plasmids pFA-CMV-hRORα-LBD (NR1F1, isoform 1, uniprot ID P35398-2, aa 266-523), pFA-CMV-hRORβ-LBD (NR1F2, isoform 2, uniprot ID Q92753-2, aa 216-470), and pFA-CMV-hRORγ-LBD (NR1F3, isoform 1, uniprot ID P51449, aa 263-518) encode the Gal4-DBD fused to the hinge region and ligand binding domain of the canonical isoform of the respective human nuclear receptor and were cloned as described previously[13,14] using cDNA from SourceBioScience (Nottingham, UK). The Gal4-responsive firefly luciferase reporter pFR-Luc (Stratagene, La Jolla, CA, USA) and pRL-SV40 (Promega, Madison, WI, USA; internal control) were used together with either pFA-CMV-NR-LBD clone for the hybrid reporter gene assays.
(§4) HEK293T cells (German Collection of Microorganisms and Cell Culture GmbH, DSMZ) were cultured in Dulbecco’s modified Eagle’s medium (DMEM), high glucose supplemented with 10 % fetal calf serum (FCS), sodium pyruvate (1 mM), penicillin (100 U/mL), and streptomycin (100 μg/mL) at 37 °C and 5 % CO2 and seeded in 96-well plates (3×10^4 cells/well) twenty-four hours prior to transfection. Before transfection, medium was changed to Opti -MEM without supplements and transient transfection with above mentioned plasmids (pFR-Luc, pRL-SV40 and one pFA-CMV-NR-LBD clone) was carried out with Lipofectamine LTX reagent (Invitrogen) according to the manufacturer’s protocol. Five hours after transfection, medium was changed to Opti -MEM supplemented with penicillin (100 U/mL) a nd streptomycin (100 μg/mL) additionally containing 0.1 % DMSO and the respective test compound or 0.1 % DMSO alone as untreated control. Each concentration was tested in duplicates and each experiment was repeated independently at least two times. Followi ng overnight (14−16 h) incubation, cells were assayed for luciferase activity using the Dual - Glo Luciferase Assay System (Promega) according to the manufacturer’s protocol. Luminescence was measured with a Tecan Spark luminometer (Tecan Deutschland GmbH, G ermany). Normalization of transfection efficiency and cell growth was done by division of firefly luciferase data by Renilla luciferase data and multiplying the value by 1000 resulting in relative light units (RLU). Fold reporter repression was obtained by dividing the mean RLU of a test compound at a respective concentration by the mean RLU of the 0.1% DMSO control. […]

RORγ = target: T2, RORγ (Homo sapiens, UniProt P51449); assay: Gal4-RORγ hybrid reporter gene assay in HEK293T cells; conditions: for IC50: Gal4 hybrid reporter gene assay, inverse agonism, mean±S.E.M., n≥4; for potency on RORγ compared to the related RORα and RORβ isoforms (subtype preference): Gal4 hybrid reporter gene assays
T2 construct: uniprot ID P51449, aa 263-518; expressed in transfected cells; host or cells: HEK293T
T2 sequence (P51449 263-518): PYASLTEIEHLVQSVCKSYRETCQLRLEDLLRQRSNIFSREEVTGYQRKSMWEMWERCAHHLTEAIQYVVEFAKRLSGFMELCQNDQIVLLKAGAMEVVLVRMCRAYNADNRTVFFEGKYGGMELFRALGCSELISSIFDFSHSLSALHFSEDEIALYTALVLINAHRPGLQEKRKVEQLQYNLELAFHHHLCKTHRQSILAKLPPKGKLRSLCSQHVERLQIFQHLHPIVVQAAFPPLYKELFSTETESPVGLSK
From the text: as §1, §2, §3
HEK293T cells (German Collection of Microorganisms and Cell Culture GmbH, DSMZ) were cultured in Dulbecco’s modified Eagle’s medium (DMEM), high glucose supplemented with 10 % fetal calf serum (FCS), sodium pyruvate (1 mM), penicillin (100 U/mL), and streptomycin (100 μg/mL) at 37 °C and 5 % CO2 and seeded in 96-well plates (3×10^4 cells/well) twenty-four hours prior to transfection. Before transfection, medium was changed to Opti -MEM without supplements and transient transfection with above mentioned plasmids (pFR-Luc, pRL-SV40 and one pFA-CMV-NR-LBD clone) was carried out with Lipofectamine LTX reagent (Invitrogen) according to the manufacturer’s protocol. Five hours after transfection, medium was changed to Opti -MEM supplemented with penicillin (100 U/mL) a nd streptomycin (100 μg/mL) additionally containing 0.1 % DMSO and the respective test compound or 0.1 % DMSO alone as untreated control. Each concentration was tested in duplicates and each experiment was repeated independently at least two times. Followi ng overnight (14−16 h) incubation, cells were assayed for luciferase activity using the Dual - Glo Luciferase Assay System (Promega) according to the manufacturer’s protocol. Luminescence was measured with a Tecan Spark luminometer (Tecan Deutschland GmbH, G ermany). Normalization of transfection efficiency and cell growth was done by division of firefly luciferase data by Renilla luciferase data and multiplying the value by 1000 resulting in relative light units (RLU). Fold reporter repression was obtained by dividing the mean RLU of a test compound at a respective concentration by the mean RLU of the 0.1% DMSO control. IC 50 values were obtained by plotting fold reporter activation vs test compound concentrations and fitting the resulting sigmoidal curve with a four-parameter logistic regression in SigmaPlot 12.5 (Systat Software GmbH, Erkrath, Germany). The Gal4 - ROR hybrid assays were validated with the reference inverse agonists SR1001 and SR1078 , which yielded IC50 values in agreement […]
(1 picture or pasted object on this page, not shown here)

RORβ = target: T3, RORβ (Homo sapiens, UniProt Q92753); assay: Gal4-RORβ hybrid reporter gene assay in HEK293T cells; conditions: for IC50: Gal4 hybrid reporter gene assay, inverse agonism, mean±S.E.M., n≥4
T3 construct: uniprot ID Q92753-2, aa 216-470; expressed in transfected cells; host or cells: HEK293T
T3 sequence (Q92753 216-470): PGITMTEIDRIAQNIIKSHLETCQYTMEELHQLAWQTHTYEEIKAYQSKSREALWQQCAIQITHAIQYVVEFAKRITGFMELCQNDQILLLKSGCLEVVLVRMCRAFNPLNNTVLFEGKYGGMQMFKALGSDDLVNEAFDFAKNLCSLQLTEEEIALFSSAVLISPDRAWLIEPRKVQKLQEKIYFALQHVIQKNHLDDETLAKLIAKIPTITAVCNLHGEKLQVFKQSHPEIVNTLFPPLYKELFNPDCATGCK
From the text: as §1, §2, §3, §4

[1] = precise IC50 could not be determined due to cytotoxicity

IC50 (RORα) | IC50 (RORγ) | IC50 (RORβ) | potency on RORγ compared to the related RORα and RORβ isoforms (subtype preference) (RORγ) | SMILES | activity on RORα (in words) (RORα; [1]) | activity on RORβ (in words) (RORβ; [1])
> 10 µM | 4.6 ± 0.5 µM | > 10 µM | – | O=C1CC2(CCCC2)CC(=O)N1CCCCN1CCN(c2ccc(Cl)cc2)CC1 [Compound 1] | additionally active | additionally active
23 ± 3 µM | 0.37 ± 0.05 µM | 22 ± 1 µM | more than tenfold higher potency | O=S(=O)(Cc1ccccc1)N(Cc1ccc(N2CCC(C(F)(F)F)CC2)cc1F)C1CCC1 [Compound 2] | – | –
10 ± 1 µM | 0.68 ± 0.07 µM | 7.6 ± 0.5 µM | more than tenfold higher potency | O=S(=O)(Cc1ccccc1)N(Cc1ccc(N2CCC(C(F)(F)F)CC2)cc1)C1CCC1 [Compound 3] | – | –

Source: article PMC8457062, “Beam Search for Automated Design and Scoring of Novel ROR Ligands with Machine Intelligence” (Angewandte Chemie (International Ed. in English), 2021)
